Experimental data as given in PubChem BioAssay AID1745844 (Carcinogenic Potency Database (CPDB), 2022).
Activity calls are given as the source filed them. No rule for the calls is given here.

System: rodent lifetime carcinogenesis bioassay, tumor incidence TD50
Assay: carcinogenic potency in animals, long-term in vivo studies, CPDB compilation (AID 1745844)
[1] = rat, strain Sprague-Dawley, females, in feed, site: any site (literature study), lesion: several types, types named in the paper, dosed 46 weeks, study length 66 weeks

CC1CN(/N=C/c2ccc([N+](=O)[O-])o2)C(=O)N1 (configuration not stated)
TD50 [1]: 5.59 mg/kg/day
TD50 (rat, strain Sprague-Dawley, females, in feed, site: mammary gland, lesion: adenocarcinoma, dosed 46 weeks, study length 66 weeks): 5.34 mg/kg/day

Nc1ccc(-c2ccc(F)cc2)cc1
TD50 (mouse, strain CBA, females, by gavage, site: liver, lesion: hepatoma, dosed 26 weeks, study length 114 weeks): 1.09 mg/kg/day
TD50 (mouse, strain CBA, males, by gavage, site: liver, lesion: hepatoma, dosed 26 weeks, study length 104 weeks): 1.19 mg/kg/day
TD50 (mouse, strain CBA, males, by gavage, site: liver, lesion: several types, types named in the paper, dosed 26 weeks, study length 104 weeks): 1.19 mg/kg/day

NNc1nc(-c2ccccc2)cs1
TD50 [1]: 311 mg/kg/day (inactive)

CC(C)(CCCOc1ccc(OCCCC(C)(C)C(=O)O)c(-c2ccccc2)c1)C(=O)O
TD50 (mouse, strain B6C3F1, females, in feed, site: liver, lesion: hepatocellular adenoma, dosed 104 weeks, study length 104 weeks): 90.6 mg/kg/day
TD50 (mouse, strain B6C3F1, females, in feed, site: liver, lesion: hepatocellular carcinoma, dosed 104 weeks, study length 104 weeks): 402 mg/kg/day
TD50 (mouse, strain B6C3F1, females, in feed, site: liver, lesion: several types, types named in the paper, dosed 104 weeks, study length 104 weeks): 72.3 mg/kg/day
TD50 (mouse, strain B6C3F1, males, in feed, site: liver, lesion: hepatocellular adenoma, dosed 104 weeks, study length 104 weeks): 107 mg/kg/day
TD50 (mouse, strain B6C3F1, males, in feed, site: liver, lesion: hepatocellular carcinoma, dosed 104 weeks, study length 104 weeks): 167 mg/kg/day
TD50 (mouse, strain B6C3F1, males, in feed, site: liver, lesion: several types, types named in the paper, dosed 104 weeks, study length 104 weeks): 45 mg/kg/day

CCN(CC)CCOc1ccc(C(O)(Cc2ccc(OC)cc2)c2ccccc2)cc1 (configuration not stated)
carcinogen call (rat, strain Not specified, females, by gavage, site: mammary tissue, wider than the gland, lesion: one or several types, types not named, dosed 52 weeks, study length 52 weeks): negative (inactive)

C=CCN(CC(O)CO)N=O (configuration not stated)
TD50 (rat, strain Fischer 344, females, in drinking water, site: esophagus, lesion: carcinoma, dosed 50 weeks, study length 55 weeks): 1.13 mg/kg/day
TD50 (rat, strain Fischer 344, females, in drinking water, site: esophagus, lesion: several types, types named in the paper, dosed 50 weeks, study length 55 weeks): 0.825 mg/kg/day
carcinogen call (rat, strain Fischer 344, females, in drinking water, site: liver, lesion: neoplastic nodule, dosed 50 weeks, study length 55 weeks): negative (inactive)
TD50 (rat, strain Fischer 344, females, in drinking water, site: nasal cavity, lesion: several types, types named in the paper, dosed 50 weeks, study length 55 weeks): 0.972 mg/kg/day

[Cl][Fe]([Cl])[Cl]
TD50 (rat, strain F344/DuCrj, females, in drinking water, site: any site (literature study), lesion: one or several types, types not named, dosed 104 weeks, study length 112 weeks): 505 mg/kg/day (inactive)
carcinogen call (rat, strain F344/DuCrj, females, in drinking water, site: liver, lesion: neoplastic nodule, dosed 104 weeks, study length 112 weeks): negative (inactive)
carcinogen call (rat, strain F344/DuCrj, males, in drinking water, site: any site (literature study), lesion: one or several types, types not named, dosed 104 weeks, study length 112 weeks): negative (inactive)
TD50 (rat, strain F344/DuCrj, males, in drinking water, site: liver, lesion: neoplastic nodule, dosed 104 weeks, study length 112 weeks): 8810 mg/kg/day (inactive)

CC(=O)NN
TD50 (mouse, strain Swiss, females, by gavage, site: lung, lesion: several types, types named in the paper, dosed 34 weeks, study length 95 weeks): 18.8 mg/kg/day
TD50 (mouse, strain Swiss, females, by gavage, site: lung, lesion: several types, types named in the paper, dosed 95 weeks, study length 95 weeks): 53.8 mg/kg/day
TD50 (mouse, strain Swiss, males, by gavage, site: lung, lesion: several types, types named in the paper, dosed 34 weeks, study length 95 weeks): 4.48 mg/kg/day
TD50 (mouse, strain Swiss, males, by gavage, site: lung, lesion: several types, types named in the paper, dosed 95 weeks, study length 95 weeks): 35.6 mg/kg/day

CCOc1ccc2c(c1)C(C)=CC(C)(C)N2
carcinogen call (rat, strain F344/DuCrj, males, in feed, site: esophagus, lesion: one or several types, types not named, dosed 52 weeks, study length 52 weeks): negative (inactive)
carcinogen call (rat, strain F344/DuCrj, males, in feed, site: forestomach, lesion: one or several types, types not named, dosed 52 weeks, study length 52 weeks): negative (inactive)
carcinogen call (rat, strain F344/DuCrj, males, in feed, site: liver, lesion: one or several types, types not named, dosed 52 weeks, study length 52 weeks): negative (inactive)
carcinogen call (rat, strain Fischer 344, females, in feed, site: kidney, lesion: one or several types, types not named, dosed 58 weeks, study length 58 weeks): negative (inactive)
carcinogen call (rat, strain Fischer 344, females, in feed, site: kidney, lesion: one or several types, types not named, dosed 78 weeks, study length 78 weeks): negative (inactive)
carcinogen call (rat, strain Fischer 344, males, in feed, site: kidney, lesion: one or several types, types not named, dosed 58 weeks, study length 58 weeks): negative (inactive)
carcinogen call (rat, strain Fischer 344, males, in feed, site: kidney, lesion: one or several types, types not named, dosed 78 weeks, study length 78 weeks): negative (inactive)
